US10947213B1 (Merck Patent GmbH, priority 2015, dated 2021)

biological target: T1, TLR7/NFKb HEK cells (Homo sapiens, UniProt Q9NYK1); test: HEK Cell Assay (TLR7/NFKb reporter, Steady-Glo luciferase readout); assay type: cell-based; conditions: 30 min compound preincubation, then R*48 agonist for 5 hours, read-out: Potency
T1 construct: expressed in transfected cells; host or cells: HEK cells (TLR7/NFKb reporter line)
T1 sequence (Q9NYK1 27-1049): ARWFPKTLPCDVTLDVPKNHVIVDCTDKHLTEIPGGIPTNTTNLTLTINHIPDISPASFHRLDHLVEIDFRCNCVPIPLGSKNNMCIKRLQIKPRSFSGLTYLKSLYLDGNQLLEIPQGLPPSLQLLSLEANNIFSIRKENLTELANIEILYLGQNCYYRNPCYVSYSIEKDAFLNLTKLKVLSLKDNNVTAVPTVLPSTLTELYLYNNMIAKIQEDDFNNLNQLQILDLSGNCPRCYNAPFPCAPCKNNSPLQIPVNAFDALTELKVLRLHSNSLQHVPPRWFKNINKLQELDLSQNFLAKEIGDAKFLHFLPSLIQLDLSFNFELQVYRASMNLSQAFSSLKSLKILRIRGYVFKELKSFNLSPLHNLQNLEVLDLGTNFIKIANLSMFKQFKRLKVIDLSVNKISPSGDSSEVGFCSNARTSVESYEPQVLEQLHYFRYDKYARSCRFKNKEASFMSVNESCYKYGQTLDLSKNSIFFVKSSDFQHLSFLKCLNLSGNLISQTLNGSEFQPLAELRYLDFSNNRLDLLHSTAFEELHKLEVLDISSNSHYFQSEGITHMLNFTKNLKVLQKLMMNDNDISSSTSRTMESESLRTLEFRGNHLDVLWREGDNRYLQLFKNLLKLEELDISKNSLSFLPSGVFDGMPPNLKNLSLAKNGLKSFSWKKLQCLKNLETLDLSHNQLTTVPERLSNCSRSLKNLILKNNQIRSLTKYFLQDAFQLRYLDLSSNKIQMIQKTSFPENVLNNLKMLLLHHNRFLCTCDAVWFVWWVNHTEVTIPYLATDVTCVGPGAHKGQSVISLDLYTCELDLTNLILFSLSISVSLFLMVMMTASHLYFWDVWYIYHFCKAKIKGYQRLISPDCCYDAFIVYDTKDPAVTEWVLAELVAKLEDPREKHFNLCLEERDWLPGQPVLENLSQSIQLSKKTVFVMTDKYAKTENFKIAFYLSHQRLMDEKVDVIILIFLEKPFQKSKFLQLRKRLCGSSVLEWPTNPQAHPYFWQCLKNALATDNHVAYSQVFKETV
In short: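 Steady-Glo luminescence after 5 h stimulation with R*48 agonist, following 30 min compound preincubation. Assay run in HEK cells carrying a TLR7/NFKb luciferase reporter, plated at 5000 cells/well and grown 24 h at 37° C (10% CO2) before treatment.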

Row | IC50 [nM] | Compound
1 | < 1000 | CC(C(=O)N[C@@H]1C[C@H](C)CN(c2ccc(C(F)(F)F)c3ncccc23)C1)N1CC(O)C1 (stereo partly drawn) [Compound 285, 2-(3-hydroxyazetidin-1-yl)-N-[(3R,5S)-5-methyl-1-[8-(trifluoromethyl)quinolin-5-yl]piperidin-3-yl]propanamide]
2 | 1000 to 10000 | CCN(CC)CCNCC1CCN(c2ccc(C#N)c3ncccc23)CC1 [Compound 401, 5-{4-[(2-Diethylamino-ethylamino)-methyl]-piperidin-1-yl}-quinoline-8-carbonitrile]
3 | 1000 to 10000 | CC(C(=O)NC1CN(c2ccc(C#N)c3nccnc23)CC(F)(F)C1)N1CCC1 (single isomer, unassigned) [Compound 508]
4 | < 1000 | CC(O)C(=O)N[C@@H]1C[C@H](C)CN(c2ccc(C(F)(F)F)c3ncccc23)C1 (stereo partly drawn) [Compound 278, 2-hydroxy-N-[(3R,5S)-5-methyl-1-[8-(trifluoromethyl)quinolin-5-yl]piperidin-3-yl]propanamide]
5 | 1000 to 10000 | N#Cc1ccc(N2CCC(C(=O)NCCN3CCC(F)(F)CC3)CC2)c2cccnc12 [Compound 427, 1-(8-Cyano-quinolin-5-yl)-piperidine-4-carboxylic Acid [2-(4,4-difluoro-piperidin-1-yl)-ethyl]-amide]
